Experiments:
[1] = system: HT-1080-FAP tumor; experiment: PET/CT imaging in HT-1080-FAP tumor-bearing mouse model; format: in vivo; conditions: ^68Ga label, 18.5 MBq via tail vein, p<0.005
Procedure: Mouse model: Nu/Nu mice (SPF grade) were purchased from Beijing Charles River Laboratories (China) and injected subcutaneously with HT-1080-FAP cells to construct a tumor model with high FAP expression.
All PET/CT scans were carried out on Mediso nanoScan® PET 122S small animal PET/CT.
After a certain number of HT-1080-FAP tumor mice were taken and injected via the tail vein with 7.4-18.5 MBq of ^68Ga/^86Y-FAPI-04 (control) and ^68Ga/^86Y-FAPI-CB series molecules at specified time points (Note: the injection of the control and investigation molecules was separated apart by at least five half-lives of the nuclide to ensure that the radioactivity of the previous probe had almost completely decayed and was essentially completely metabolized), imaging was carried out at specified time points. In some examples, the mice were anesthetized and then sacrificed by neck breaking at a certain time point. Organs were dissected and taken for radioactivity measurement.
A ^68Ge-^68Ga generator was eluted with 5 mL of 0.6 M high-purity hydrochloric acid to obtain a Ga-68 hydrochloric acid solution. 1 mL of the Ga-68 solution after elution was taken, and 100 μL of 3 M sodium hydroxide and 130 μL of 3M sodium acetate were added to adjust the acidity to a final pH of 4.0. 12 μg of FAPI-CB-00 compound was added, and the reaction mixture was heated to 70° C. and maintained for 20 min. […]

[2] = system: FAP, DPP-4 and PREP; experiment: Binding selectivity to homologous proteins (competitive inhibition of enzyme substrate, IC50); format: biochemical; conditions: from IC50 values, pNA release
Procedure: Taking FAP target as an example, homologous proteins thereof include, but are not limited to, DPP-4 and PREP. The structural similarity thereof may lead to a decreased binding selectivity of the modified precursor molecules for the homologous proteins, resulting in an increased uptake in non-target organs.
The binding selectivity for homologous proteins was determined by a competitive inhibition experiment on the substrate of the enzymes, and the binding/inhibition selectivity thereof is indirectly evaluated by the median inhibitory concentration (IC50) values obtained.
By reference to the method described in Extended Structure-Activity Relationship and Pharmacokinetic Investigation of (4-Quinolinoyl)glycyl-2-cyanopyrrolidine Inhibitors of Fibroblast Activation Protein (FAP). Journal of Medicinal Chemistry 57, 3053-3074 (2014), published by Jansen et al., the initial rate of p-nitroaniline (pNA) released from the substrate (absorption at 405 nm) was measured by using a microplate reader (PerkinElmer, Victor™ X5) at 37° C. in a final volume of 200 μL to determine the kinetic properties of the enzyme activity. […]
The determination method for IC50 on FAP is as follows: the substrate Z-Gly-Pro-p-nitroanilide (50 μM, Cat #G-58468, HEOWNS) was used to measure FAP activity at pH 7.4. […] The mixture was then incubated at 37° C. for 6 hours, and the release of pNA was then measured. […]

In the case of `N#C[C@@H]1CC(F)(F)CN1C(=O)CNC(=O)c1ccnc2ccc(OCCCN3CCN(C(=O)[C@H](CCCCNC(=O)c4ccc(OS(=O)(=O)F)cc4)NC(=O)CN4CCN(CC(=O)O)CCN(CC(=O)O)CCN(CC(=O)O)CC4)CC3)cc12` [FAPI-CB-01], the “improvement of maximum standard tumor uptake value (SUVmax) compared with FAPI-04” value [1] is reported as “about 2 times” and the “selectivity to FAP protein over homologous proteins DPP-4 and PREP” value [2] is reported as “high selectivity”.

Source: patent US20260137820A1, “TRIFUNCTIONAL COMPOUND AND USE THEREOF” (PEKING UNIVERSITY, priority 2022, published 2026)
